Test results published in ChEMBL document CHEMBL1155762, “A new naphthopyrone derivative from Cassia quinquangulata and structural revision of quinquangulin and its glycosides” (2001).
≈ marks a conversion by molar mass, not a printed value.

Tests used:
Staphylococcus aureus [1] = assay: Antibacterial activity against Staphylococcus aureus ATCC 6538 after 24 hrs; type: functional; details: ATCC 6538, 24 h
Staphylococcus aureus [2] = assay: Antibacterial activity against methicillin-resistant Staphylococcus aureus ATCC 33591 after 24 hrs; type: functional; details: ATCC 33591, 24 h

SMILES | MIC (Staphylococcus aureus [1]) | MIC (Staphylococcus aureus [2])
CC[C@H]1OC(=O)[C@H](C)[C@@H](O[C@H]2C[C@@](C)(OC)[C@@H](O)[C@H](C)O2)[C@H](C)[C@@H](O[C@@H]2O[C@H](C)C[C@H](N(C)C)[C@H]2O)[C@](C)(O)C[C@@H](C)C(=O)[C@H](C)[C@@H](O)[C@]1(C)O [ERYTHROMYCIN] | 1.25 µg/mL (≈ 1.7 µM) | –
COc1cc(O)c2c(O)c3c(=O)cc(C)oc3cc2c1C [QUINQUANGULIN] | 3.12 µg/mL (≈ 10.9 µM) | 6.25 µg/mL (≈ 21.8 µM)
CO[C@H]1/C=C/O[C@@]2(C)Oc3c(C)c(O)c4c(O)c(c(/C=N/N5CCN(C)CC5)c(O)c4c3C2=O)NC(=O)/C(C)=C\C=C\[C@H](C)[C@H](O)[C@@H](C)[C@@H](O)[C@@H](C)[C@H](OC(C)=O)[C@@H]1C [RIFAMPIN] | 0.005 µg/mL (≈ 0.00608 µM) | < 0.005 µg/mL
